The structures appear in SMILES notation.

The data set in a line: logP determination by HPLC (EEC Directive 79/831 Annex V. A8). Type of data set: physicochemical. The method, then: The logP values were determined in accordance with EEC Directive 79/831 Annex V. A8 by HPLC (gradient method, acetonitrile/0.1% aqueous phosphoric acid (s) or gradient method, acetonitrile/0.1% water (n))
The compound `CO/N=C(SC)/C(C)=N/OCc1ccccc1/C(=C\C(=O)OC)OC` [Example 1, methyl 3-methoxy-3-[2-(2-methoxyamino-1-methyl-2-methylthio-ethylideneaminooxymethyl)-phenyl]-acrylate] had a chromatographic logP of 3.5.

`CO/N=C(OC)/C(C)=N/OCc1ccccc1/C(=C\C(=O)OC)OC` [Example 3, methyl 3-methoxy-3-[2-(2-methoxy-2-methoxyimino-1-methyl-ethylideneaminooxymethyl)-phenyl]-acrylate]: the chromatographic logP came out at 3.05. The result for `CO/N=C(/C(C)=N/OCc1ccccc1/C(=C\C(=O)OC)OC)S(C)(=O)=O` [Example 2, methyl 3-[2-(2-methanesulfonyl-2-methoxyimino-1-methyl-ethylideneaminooxymethyl)-phenyl]-3-methoxy-acrylate] reads 2.79.

(Values after patent US6369111B1, “Substituted oximes” (priority 1998, dated 2002).)
